Measurements taken from ChEMBL document CHEMBL5375978, “Harnessing the Reactivity of Duclauxin toward Obtaining hPTP1B1-400 Inhibitors” (J Med Chem, 2023).
Calls of active or inactive are those of the source. No cut-off for these calls is given here.

Legend:
[1] = target: T1, Tyrosine-protein phosphatase non-receptor type 1 (Homo sapiens) (UniProt P18031); assay: Inhibition of wild type N-terminal 6 his tagged human PTP1B (1 to 400 residues) expressed in Escherichia coli (Rosetta, DE3) using p-NPP as substrate at 100 uM preincubated for 10 mins followed by substrate addition and measured after 20 mins by absorbance based analysis; details: time 30.0 min
T1 sequence (whole entry): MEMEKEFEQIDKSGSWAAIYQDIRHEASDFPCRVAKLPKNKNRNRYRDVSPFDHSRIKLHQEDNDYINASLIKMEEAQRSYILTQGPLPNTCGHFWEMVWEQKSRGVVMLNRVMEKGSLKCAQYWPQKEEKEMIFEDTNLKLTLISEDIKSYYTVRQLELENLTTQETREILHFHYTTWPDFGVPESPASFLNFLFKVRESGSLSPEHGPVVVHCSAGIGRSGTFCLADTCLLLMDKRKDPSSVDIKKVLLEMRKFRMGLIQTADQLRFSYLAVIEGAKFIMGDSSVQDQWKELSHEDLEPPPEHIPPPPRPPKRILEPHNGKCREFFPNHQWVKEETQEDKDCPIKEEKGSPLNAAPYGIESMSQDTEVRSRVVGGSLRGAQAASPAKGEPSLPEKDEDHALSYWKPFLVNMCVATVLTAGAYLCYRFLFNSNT

[2] = target: T2, Tyrosine-protein phosphatase non-receptor type 1 (Homo sapiens, UniProt P18031); assay: Inhibition of wild type N-terminal 6 his tagged human PTP1B (1 to 400 residues) expressed in Escherichia coli (Rosetta, DE3) using p-NPP as substrate preincubated for 10 mins followed by substrate addition and measured after 20 mins by absorbance based analysis
T2 sequence (P18031 whole entry): T1 sequence (whole entry)

[3] = target: T1, Tyrosine-protein phosphatase non-receptor type 1 (Homo sapiens); assay: Binding affinity to wild type N-terminal 6 his tagged human PTP1B (1 to 400 residues) expressed in Escherichia coli (Rosetta, DE3) assessed as affinity constant by fluorescence based analysis

| Structure (SMILES) | IC50 [2] | also measured |
| --- | --- | --- |
| CO[C@@]12c3c(C)cc(O)c4c(=O)n([C@H](C(=O)O)C(C)C)cc(c34)C(=O)[C@@H]1[C@]13COC(=O)c4c(O)cc(C)c(c41)C(=O)[C@H]2[C@@H]3OC(C)=O |  | inhibition [1]: inactive |
| CC(=O)O[C@H]1[C@@H]2C(=O)c3c(C)cc(O)c4c3[C@@]1(COC4=O)C1=C2c2c(C)cc(O)c3c(=O)n(-c4ccc5ncccc5c4)cc(c23)C1=O | 5.7 µM |  |
| COc1ccc(-n2cc3c4c(c(C)cc(O)c4c2=O)C2=C(C3=O)[C@]34COC(=O)c5c(O)cc(C)c(c53)C(=O)[C@H]2[C@@H]4OC(C)=O)cc1OC | 16.9 µM |  |
| CO[C@@]12c3c(C)cc(O)c4c(=O)n(CC(=O)O)cc(c34)C(=O)[C@@H]1[C@]13COC(=O)c4c(O)cc(C)c(c41)C(=O)[C@H]2[C@@H]3OC(C)=O | 13.5 µM |  |
| CC(=O)O[C@H]1[C@@H]2C(=O)c3c(C)cc(O)c4c3[C@@]1(COC4=O)c1c(O)c(C=O)c3cc(O)cc(C)c3c12 | 3.5 µM |  |
| CC(=O)O[C@H]1[C@@H]2C(=O)c3c(C)cc(O)c4c3[C@@]1(COC4=O)C1=C2c2c(C)cc(O)c3c(=O)n(-c4cccnc4)cc(c23)C1=O | 56.9 µM |  |
| CCOC(=O)[C@H](Cc1ccccc1)n1cc2c3c(c(C)cc(O)c3c1=O)[C@]1(OC)[C@H](C2=O)[C@]23COC(=O)c4c(O)cc(C)c(c42)C(=O)[C@H]1[C@@H]3OC(C)=O | 55.6 µM |  |
| CC(=O)O[C@H]1[C@@H]2C(=O)c3c(C)cc(O)c4c3[C@@]1(COC4=O)c1c(O)c3c4c(c(O)cc(C)c4c12)C(=O)O3 | 82.1 µM |  |
| CO[C@@]12c3c(C)cc(O)c4c(=O)n(-c5cccc([N+](=O)[O-])c5)cc(c34)C(=O)[C@@H]1[C@]13COC(=O)c4c(O)cc(C)c(c41)C(=O)[C@H]2[C@@H]3OC(C)=O | 12.3 µM |  |
| CO[C@@]12c3c(C)cc(O)c4c(=O)n(-c5ccc([N+](=O)[O-])cc5)cc(c34)C(=O)[C@@H]1[C@]13COC(=O)c4c(O)cc(C)c(c41)C(=O)[C@H]2[C@@H]3OC(C)=O | 7.7 µM | Ka [3]: 2.1 10^5/M |
| CC(=O)O[C@H]1[C@@H]2C(=O)c3c(C)cc(O)c4c3[C@@]1(COC4=O)C1=C2c2c(C)cc(O)c3c(=O)n(-c4ccc(O)cc4[N+](=O)[O-])cc(c23)C1=O | 31.6 µM |  |
| CC(=O)O[C@H]1[C@@H]2C(=O)c3c(C)cc(O)c4c3[C@@]1(COC4=O)C1=C2c2c(C)cc(O)c3c(=O)[nH]cc(c23)C1=O | 36.6 µM |  |
| CC(=O)O[C@H]1[C@@H]2C(=O)c3c(C)cc(O)c4c3[C@@]1(COC4=O)C1=C2c2c(C)cc(O)c3c(=O)n(-c4cccc([N+](=O)[O-])c4)cc(c23)C1=O | 8 µM |  |
| CC(=O)O[C@H]1[C@@H]2C(=O)c3c(C)cc(O)c4c3[C@@]1(COC4=O)C1=C2c2c(C)cc(O)c3c(=O)n(-c4ccccc4O)cc(c23)C1=O | 13.2 µM |  |
| CC(=O)O[C@H]1[C@@H]2C(=O)c3c(C)cc(O)c4c3[C@@]1(COC4=O)C1=C2c2c(C)cc(O)c3c(=O)n(-c4ncccc4C)cc(c23)C1=O | 32.3 µM |  |
| CO[C@@H]1OC(=O)c2c(O)cc(C)c3c4c(c(O)c1c23)[C@]12COC(=O)c3c(O)cc(C)c(c31)C(=O)[C@H]4[C@@H]2OC(C)=O | 12.6 µM |  |
| COc1cc(-n2cc3c4c(c(C)cc(O)c4c2=O)C2=C(C3=O)[C@]34COC(=O)c5c(O)cc(C)c(c53)C(=O)[C@H]2[C@@H]4OC(C)=O)cc(OC)c1OC | 52.4 µM |  |
| CC(=O)O[C@H]1[C@@H]2C(=O)c3c(C)cc(O)c4c3[C@@]1(COC4=O)C1=C2c2c(C)cc(O)c3c(=O)n(-c4ccc(Br)cc4)cc(c23)C1=O | 9.3 µM |  |
| CC(=O)O[C@H]1[C@@H]2C(=O)c3c(C)cc(O)c4c3[C@@]1(COC4=O)C1=C2c2c(C)cc(O)c3c(=O)n(-c4cccc5cccnc45)cc(c23)C1=O | 6.4 µM |  |
| CC(=O)O[C@H]1[C@@H]2C(=O)c3c(C)cc(O)c4c3[C@@]1(COC4=O)C1=C2c2c(C)cc(O)c3c(=O)n(-c4ccccc4[N+](=O)[O-])cc(c23)C1=O | 27.2 µM |  |
| CC(=O)O[C@H]1[C@@H]2C(=O)c3c(C)cc(O)c4c3[C@@]1(COC4=O)C1=C2c2c(C)cc(O)c3c(=O)n(-c4ccccc4Cl)cc(c23)C1=O | 38.8 µM |  |
| COc1ccc(-n2cc3c4c(c(C)cc(O)c4c2=O)C2=C(C3=O)[C@]34COC(=O)c5c(O)cc(C)c(c53)C(=O)[C@H]2[C@@H]4OC(C)=O)cc1 | 14.7 µM |  |

| Structure (SMILES) | IC50 [2] | also measured |
| --- | --- | --- |
| CO[C@@]12c3c(C)cc(O)c4c(=O)n([C@@H](CC(=O)O)C(=O)O)cc(c34)C(=O)[C@@H]1[C@]13COC(=O)c4c(O)cc(C)c(c41)C(=O)[C@H]2[C@@H]3OC(C)=O |  | inhibition [1]: inactive |
| CC(=O)O[C@H]1[C@@H]2C(=O)c3c(C)cc(O)c4c3[C@@]1(COC4=O)C1=C2c2c(C)cc(O)c3c(=O)n(-c4cccc5ncccc45)cc(c23)C1=O | 15.9 µM |  |
| CC(=O)O[C@H]1[C@@H]2C(=O)c3c(C)cc(O)c4c3[C@@]1(COC4=O)C1=C2c2c(C)cc(O)c3c(=O)n(-c4cc(C)ccn4)cc(c23)C1=O | 15.7 µM |  |
| CC(=O)O[C@H]1[C@@H]2C(=O)c3c(C)cc(O)c4c3[C@@]1(COC4=O)C1=C2c2c(C)cc(O)c3c(=O)n(-c4ccc(O)cc4)cc(c23)C1=O | 23.7 µM |  |
| CC(=O)O[C@H]1[C@@H]2C(=O)c3c(C)cc(O)c4c3[C@@]1(COC4=O)C1=C2c2c(C)cc(O)c3c(=O)n(-c4cccc(Cl)c4)cc(c23)C1=O | 23.7 µM |  |
| CC(=O)O[C@H]1[C@@H]2C(=O)c3c(C)cc(O)c4c3[C@@]1(COC4=O)C1=C2c2c(C)cc(O)c3c(=O)n(-c4ccc(Cl)cc4)cc(c23)C1=O | 13.9 µM |  |
| CC(=O)O[C@H]1[C@@H]2C(=O)c3c(C)cc(O)c4c3[C@@]1(COC4=O)c1c(O)c3c4c(c(O)cc(C)c4c12)C(=O)OC3=O | 21.9 µM |  |
| CO[C@@]12c3c(C)cc(O)c4c3C(=C(O)[C@@H]1[C@]13COC(=O)c5c(O)cc(C)c(c51)C(=O)[C@H]2[C@@H]3OC(C)=O)C=NC4=O | 23.7 µM |  |
| CC(=O)O[C@H]1[C@@H]2C(=O)c3c(C)cc(O)c4c3[C@@]1(COC4=O)C1=C2c2c(C)cc(O)c3c(=O)n(-c4ccc(C)cc4)cc(c23)C1=O | 3.2 µM |  |
| CO[C@@]12c3c(C)cc(O)c4c(=O)n(-c5cccc(Cl)c5)cc(c34)C(=O)[C@@H]1[C@]13COC(=O)c4c(O)cc(C)c(c41)C(=O)[C@H]2[C@@H]3OC(C)=O | 73.1 µM |  |
| CC(=O)O[C@H]1[C@@H]2C(=O)c3c(C)cc(O)c4c3[C@@]1(COC4=O)C1=C2c2c(C)cc(O)c3c(=O)n(-c4ccccc4I)cc(c23)C1=O | 17.5 µM |  |
| CO[C@H]1OC(=O)c2c(O)cc(C)c3c4c(c(O)c1c23)[C@]12COC(=O)c3c(O)cc(C)c(c31)C(=O)[C@H]4[C@@H]2OC(C)=O | 38 µM |  |
| CC(=O)O[C@H]1[C@@H]2C(=O)c3c(C)cc(O)c4c3[C@@]1(COC4=O)C1=C2c2c(C)cc(O)c3c(=O)n(-c4ccccc4F)cc(c23)C1=O | 35 µM |  |
| CO[C@@]12c3c(C)cc(O)c4c(=O)n(-c5ccc(Br)cc5)cc(c34)C(=O)[C@@H]1[C@]13COC(=O)c4c(O)cc(C)c(c41)C(=O)[C@H]2[C@@H]3OC(C)=O | 47.4 µM |  |
| CO[C@@]12c3c(C)cc(O)c4c(=O)n(-c5ccc(C)cc5)cc(c34)C(=O)[C@@H]1[C@]13COC(=O)c4c(O)cc(C)c(c41)C(=O)[C@H]2[C@@H]3OC(C)=O | 35.3 µM |  |
| CC(=O)O[C@H]1[C@@H]2C(=O)c3c(C)cc(O)c4c3[C@@]1(COC4=O)C1=C2c2c(C)cc(O)c3c(=O)n(-c4ccccn4)cc(c23)C1=O | 36.4 µM |  |
| CC(=O)O[C@H]1[C@@H]2C(=O)c3c(C)cc(O)c4c3[C@@]1(COC4=O)C1=C2c2c(C)cc(O)c3c(=O)n(-c4cnc5ccccc5c4)cc(c23)C1=O | 23.3 µM |  |
| CCOC(=O)[C@H](Cc1ccccc1)n1cc2c3c(c(C)cc(O)c3c1=O)C1=C(C2=O)[C@]23COC(=O)c4c(O)cc(C)c(c42)C(=O)[C@H]1[C@@H]3OC(C)=O | 22.9 µM |  |
| CO[C@@]12c3c(C)cc(O)c4c(=O)n(-c5ccccc5)cc(c34)C(=O)[C@@H]1[C@]13COC(=O)c4c(O)cc(C)c(c41)C(=O)[C@H]2[C@@H]3OC(C)=O |  | inhibition [1]: inactive |
| CC(=O)O[C@H]1[C@@H]2C(=O)c3c(C)cc(O)c4c3[C@@]1(COC4=O)C1=C2c2c(C)cc(O)c3c(=O)n(-c4ccccc4)cc(c23)C1=O | 78.4 µM |  |
| CC(=O)O[C@H]1[C@@H]2C(=O)c3c(C)cc(O)c4c3[C@@]1(COC4=O)C1=C2c2c(C)cc(O)c3c(=O)n(-c4ccc(I)cc4)cc(c23)C1=O | 13 µM |  |
